Tests used:
[1] = tested on: Male Sprague-Dawley rats; experiment: scMET-induced seizure protection, rats; assay type: in vivo; details: pentylenetetrazole 35 mg/kg
Method: A 35 mg/kg subcutaneous dose of pentylenetetrazole was given and the percent outcome of seizure was recorded. Results were analyzed using ANOVA (Dunnett's test: *P<0.05).
Test subjects were given a test compound, followed by a 35 mg/kg dose of MET and observed for convulsions (FIG. 7).
(§1) Results were analyzed using ANOVA (Dunnett's test: *P<0.05).

[2] = tested on: Male Sprague-Dawley rats; experiment: Inverted screen test (muscle relaxation); assay type: in vivo; details: for muscle relaxation / motor impairment in inverted screen: i.p. 30 minutes prior, diazepam 3, 10, 30 mg/kg, KRM-II-81 10, 30, 60 mg/kg, HZ-166 30 mg/kg
Method: as §1
The inverted screen test is used to measure whether or not a test compound induces muscle relaxation. When a test subject is placed on a wire screen which is then inverted, the reaction is to climb to the opposite side so they are no longer hanging upside down. If a compound promotes muscle relaxation, the test subjects will either fall off, or hang onto the screen without being able to climb to the opposite side.
Rats were placed onto the top of a wire screen, which was then inverted so that the rats were hanging upside down. […] Results were analyzed using ANOVA (Dunnett's test: *P<0.05).

[3] = tested on: Male CD-1 mice; experiment: Maximal electroshock (MES)-induced convulsion protection; assay type: in vivo; details: i.p. 30 minutes prior to test
Method: Male CD-1 mice (n=10) were dosed i.p. 30 minutes prior to being tested. Results were analyzed using ANOVA (Dunnett's test versus vehicle: *P<0.05).
The maximal electroshock (MES) assay is designed to determine how well a test compound can prevent seizures induced by applying a voltage stimuli to a mouse.
Mice were subjected to electrical induced tonic seizures and examined for anticonvulsant effects 30 minutes after treatment. Mice were then given a 7 mA electroshock using a Wahlquist Model H for 0.2 seconds and observed for the presence or absence of seizure activity. Each mouse is tested only once and euthanized immediately following the test.

[4] = tested on: Male Sprague-Dawley rats; experiment: PTZ-induced seizure threshold; assay type: in vivo; details: test compound 3 to 60 mg/kg, diazepam 0.1 to 1 mg/kg i.p.
Method: as §1
After a pretreatment of test compound, MET was intravenously administered to a test subject until a convulsions were observed.
Each animal was used only once and was euthanized post testing. Results were analyzed using ANOVA (Dunnett's test: *P<0.05).

[5] = Liver microsomal stability, human; assay type: in vitro ADME; details: 37° C., 4 μM compound, 30 minutes
Method: (§2) In vitro metabolism studies were done in mouse, rat, human, and dogs cells (TABLE 2).
(§3) In vitro liver microsomal studies were completed to measure the stability of the compounds against degradation in various species' liver microsomes.
(§4) Compound was incubated in hepatic microsomes over a 30-minute incubation period at 37° C. Incubations both with and without NADPH (2 mM) were performed in a 96-well plate format. The reaction was initiated with the addition of substrate and was terminated by protein precipitation. All incubations were performed using a final substrate concentration of 4 μM in 50 mM sodium phosphate buffer, pH 7.4. The final organic solvent content was 0.5% acetonitrile and 0.02% DMSO. The amount of enzyme present was fixed at 1.11 mg/mL protein irrespective of the species of microsomes used. Samples were analyzed by LC/MS-MS to determine the percent loss in the NAPDH incubations relative to the NADPH free incubations.

[6] = tested on: Male Sprague-Dawley rats; details: has been shown; cited from earlier work
[7] = Liver microsomal stability, dog; assay type: in vitro ADME; details: 37° C., 4 μM compound, 30 minutes
Method: as §2, §3, §4

[8] = Liver microsomal stability, rat; assay type: in vitro ADME; details: 37° C., 4 μM compound, 30 minutes
Method: as §2, §3, §4

[9] = tested on: Male NIH Swiss mice; details: previously shown; cited from earlier work
[10] = tested on: Male CD-1 mice; details: previously shown; cited from earlier work
[11] = Pharmacokinetics after 10 mg/kg P.O. dose, mice; assay type: in vivo; details: mouse, blood, po
Excerpt: Although these are different species, the numbers can still be compared.

[12] = tested on: rhesus monkeys; details: previously shown; cited from earlier work
[13] = Liver microsomal stability, mouse; assay type: in vitro ADME; details: 37° C., 4 μM compound, 30 minutes
Method: as §2, §3, §4

[14] = tested on: Sprague Dawley male rats; experiment: Mechanical hyperalgesia (von Frey) in CFA-induced inflammatory pain rat model; assay type: in vivo; details: cumulative i.p. dosing, 3 days after CFA
Method: Raw data (paw withdrawal threshold, expressed in g of von Frey filament) was converted to a maximal possible effect value according the following equation: % MPE=[(test threshold(g)−control threshold(g)/(pre-CFA threshold−control threshold)]×100.
Complete Freund's adjuvant (CFA) contains Mycobacterium butyricum, inducing inflammation and an increase in paw thickness. 0.1 mL of CFA was injected in the right hind paw of Sprague Dawley male rats under isoflurane anaesthesia.
Mechanical hyperalgesia. Mechanical hyperalgesia was measured 3 days after CFA treatment. Rats (n=6) were placed in elevated boxes with a mesh floor. Von Frey filaments (expressed in g) were applied perpendicularly to the hindpaws, starting with the lowest filament (1.4 g) then increased until hindpaw withdrawal was observed. After each measurement, rats received the next dose of drug (every 20 min) until the maximum threshold (26 g) was observed. For the antagonist study, rats were pretreated with the benzodiazepine site antagonist flumazenil (10 min) and then received the next dose of drug (every 20 min) until the pre-CFA threshold was observed.
Drugs. The following drugs were used: HZ166, KRM-II-18B, and KRM-II-81, and were dissolved in a mixture containing 20% Dimethyl sulfoxide (DMSO), 10% Emulphor-620 (Rhodia Inc.), and 70% of 0.9% saline. Flumazenil (purchased from Cayman Chemical Company, MI) was dissolved in a mixture containing 10% ethanol, 40% propylene glycol, and 50% sterile water. Midazolam (Akorn, Inc.) was dissolved in 0.9% saline. Doses were expressed as the weight of the drug in milligrams per kilogram of body weight and drugs were administered intraperitoneally.

[15] = tested on: Male Sprague-Dawley rats; details: previously shown; species not stated; cited from earlier work
[16] = molecular target: GABAA/α3 (Homo sapiens, UniProt P18507+P34903); details: as disclosed in Huang, et al., J. Med. Chem. 2000; cited from earlier work
GABAA/α3, sequence (P34903 29-492): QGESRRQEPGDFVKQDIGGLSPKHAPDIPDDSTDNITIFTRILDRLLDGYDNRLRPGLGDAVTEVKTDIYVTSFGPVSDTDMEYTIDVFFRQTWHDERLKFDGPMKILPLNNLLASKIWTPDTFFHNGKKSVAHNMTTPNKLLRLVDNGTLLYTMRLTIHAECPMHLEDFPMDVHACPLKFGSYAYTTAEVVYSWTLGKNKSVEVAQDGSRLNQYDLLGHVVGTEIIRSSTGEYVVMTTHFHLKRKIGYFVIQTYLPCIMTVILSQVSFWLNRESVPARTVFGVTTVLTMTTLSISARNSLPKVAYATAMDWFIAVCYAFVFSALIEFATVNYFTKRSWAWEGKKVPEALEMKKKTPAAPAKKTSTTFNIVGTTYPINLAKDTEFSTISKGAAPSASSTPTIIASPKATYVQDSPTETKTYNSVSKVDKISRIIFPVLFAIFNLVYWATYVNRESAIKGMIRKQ
GABAA/α3, sequence (P28472 26-473 partner): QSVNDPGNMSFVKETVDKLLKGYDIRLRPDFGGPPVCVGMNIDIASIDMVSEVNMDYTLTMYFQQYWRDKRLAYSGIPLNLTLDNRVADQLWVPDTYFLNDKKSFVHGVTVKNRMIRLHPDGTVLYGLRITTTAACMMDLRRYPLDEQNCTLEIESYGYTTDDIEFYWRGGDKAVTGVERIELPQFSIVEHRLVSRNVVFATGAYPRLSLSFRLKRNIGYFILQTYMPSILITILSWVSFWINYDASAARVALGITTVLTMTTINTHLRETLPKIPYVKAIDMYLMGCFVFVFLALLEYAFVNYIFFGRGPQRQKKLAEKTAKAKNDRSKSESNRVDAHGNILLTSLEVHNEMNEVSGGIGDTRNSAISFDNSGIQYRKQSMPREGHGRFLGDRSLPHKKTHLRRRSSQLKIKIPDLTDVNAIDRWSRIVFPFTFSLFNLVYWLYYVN
GABAA/α3, sequence (P18507 40-475): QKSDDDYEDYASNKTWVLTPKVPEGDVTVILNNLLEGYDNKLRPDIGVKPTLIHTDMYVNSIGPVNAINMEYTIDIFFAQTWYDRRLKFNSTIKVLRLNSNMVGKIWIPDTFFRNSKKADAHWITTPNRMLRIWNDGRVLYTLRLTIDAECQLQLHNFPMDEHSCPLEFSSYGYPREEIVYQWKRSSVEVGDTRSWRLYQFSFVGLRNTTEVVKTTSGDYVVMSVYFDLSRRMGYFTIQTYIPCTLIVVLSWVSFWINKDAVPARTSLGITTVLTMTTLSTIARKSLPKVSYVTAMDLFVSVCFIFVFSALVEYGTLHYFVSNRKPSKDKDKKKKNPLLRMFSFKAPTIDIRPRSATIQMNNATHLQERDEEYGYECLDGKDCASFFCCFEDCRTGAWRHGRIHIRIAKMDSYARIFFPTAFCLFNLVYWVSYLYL

[17] = molecular target: GABAA/α1 receptors (Homo sapiens, UniProt P14867+P18507); details: as disclosed in Huang, et al., J. Med. Chem. 2000; cited from earlier work
GABAA/α1 receptors, sequence (P14867 28-456): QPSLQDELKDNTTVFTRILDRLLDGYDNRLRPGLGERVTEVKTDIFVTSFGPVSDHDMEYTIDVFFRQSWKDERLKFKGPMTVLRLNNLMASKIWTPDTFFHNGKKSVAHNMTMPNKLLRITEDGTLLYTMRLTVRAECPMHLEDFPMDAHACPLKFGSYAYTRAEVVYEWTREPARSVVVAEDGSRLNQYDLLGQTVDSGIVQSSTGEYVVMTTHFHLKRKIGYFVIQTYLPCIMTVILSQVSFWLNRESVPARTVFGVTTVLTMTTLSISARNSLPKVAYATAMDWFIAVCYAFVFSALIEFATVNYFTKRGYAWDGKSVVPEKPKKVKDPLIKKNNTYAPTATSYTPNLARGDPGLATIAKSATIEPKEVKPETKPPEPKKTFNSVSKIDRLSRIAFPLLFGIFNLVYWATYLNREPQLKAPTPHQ
GABAA/α1 receptors, sequence (P28472 26-473 partner): as the sequence (P28472 26-473 partner) above
GABAA/α1 receptors, sequence (P18507 40-475): as the sequence (P18507 40-475) above

[18] = molecular target: GABAA/α2 (Homo sapiens, UniProt P18507+P47869); details: as disclosed in Huang, et al., J. Med. Chem. 2000; cited from earlier work
GABAA/α2, sequence (P47869 29-451): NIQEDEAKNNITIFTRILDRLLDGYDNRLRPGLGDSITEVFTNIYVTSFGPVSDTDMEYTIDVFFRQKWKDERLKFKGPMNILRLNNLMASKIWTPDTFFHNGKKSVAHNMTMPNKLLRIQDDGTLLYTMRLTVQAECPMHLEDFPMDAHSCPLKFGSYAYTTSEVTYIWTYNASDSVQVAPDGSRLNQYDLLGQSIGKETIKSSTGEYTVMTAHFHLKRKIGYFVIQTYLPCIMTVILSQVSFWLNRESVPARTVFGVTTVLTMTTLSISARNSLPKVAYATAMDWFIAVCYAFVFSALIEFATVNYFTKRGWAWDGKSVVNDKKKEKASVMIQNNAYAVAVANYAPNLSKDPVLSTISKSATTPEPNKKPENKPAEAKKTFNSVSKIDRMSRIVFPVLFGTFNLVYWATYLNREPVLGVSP
GABAA/α2, sequence (P28472 26-473 partner): as the sequence (P28472 26-473 partner) above
GABAA/α2, sequence (P18507 40-475): as the sequence (P18507 40-475) above

[19] = molecular target: GABAA/α5 receptors (Homo sapiens, UniProt P18507+P31644); details: as disclosed in Huang, et al., J. Med. Chem. 2000; cited from earlier work
GABAA/α5 receptors, sequence (P31644 32-462): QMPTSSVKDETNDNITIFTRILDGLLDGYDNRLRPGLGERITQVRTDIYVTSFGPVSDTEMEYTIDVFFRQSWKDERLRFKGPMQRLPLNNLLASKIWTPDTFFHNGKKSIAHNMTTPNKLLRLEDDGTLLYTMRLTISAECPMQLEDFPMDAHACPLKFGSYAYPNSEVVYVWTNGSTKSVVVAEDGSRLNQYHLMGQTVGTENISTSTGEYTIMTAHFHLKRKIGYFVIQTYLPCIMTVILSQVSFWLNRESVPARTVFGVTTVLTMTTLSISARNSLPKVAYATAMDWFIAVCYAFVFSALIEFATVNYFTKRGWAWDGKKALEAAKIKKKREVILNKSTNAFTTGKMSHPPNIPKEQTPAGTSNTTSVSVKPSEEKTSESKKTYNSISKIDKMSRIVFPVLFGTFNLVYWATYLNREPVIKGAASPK
GABAA/α5 receptors, sequence (P28472 26-473 partner): as the sequence (P28472 26-473 partner) above
GABAA/α5 receptors, sequence (P18507 40-475): as the sequence (P18507 40-475) above

CN1C(=O)CN=C(c2ccccc2)c2cc(Cl)ccc21 [diazepam, reference compound]
dose achieving significant protection against scMET seizures ([1]; i.p. 30 minutes prior): 10 mg/kg | muscle relaxation / motor impairment in inverted screen [2]: produced full motor impairment | protection against MES-induced seizures [3]: fully protected against seizure induction | effect on seizure threshold to PTZ [4]: significantly increased the seizure threshold to PTZ

C#Cc1ccc2c(c1)C(c1ccccn1)=NCc1c(C(=O)OCC)ncn1-2 [HZ-166, Ethyl-8-ethynyl-6-(pyridin-2-yl)-4H-benzo[f]imidazo[1,5-a][1,4]diazepine-3-carboxylate]
Human Liver microsome stability (reported in % remaining) [5]: 80 % remaining | performance in von Frey filament assay [6]: perform well in this assay | Dog Liver microsome stability (reported in % remaining) [7]: 97 % remaining | effect against scMET seizures at 30 mg/kg ([1]; 30 mg/kg i.p.): little effect | Rat Liver microsome stability (reported in % remaining) [8]: 50 % remaining | doses with no ataxic complications [9]: over 100 mg/kg | muscle relaxation / motor impairment in inverted screen [2]: Neither HZ-166 nor KRM-II-81 induced significant muscle relaxation | dose at which signs of muscle relaxation began to appear ([2]; i.p., inverted screen): 30 mg/kg | effectiveness in MES assay [10]: effective in this assay | protection against MES-induced seizures [3]: did not | Tmax [11]: 5.58 h | Cmax ([11]; read-out: Cmax (highest concentration found in blood)): 4.11 ng/mL | effectiveness in conflict procedure [12]: effective in rhesus monkeys | Mouse Liver microsome stability (reported in % remaining) [13]: 54 % remaining | mechanical hyperalgesia in CFA-induced inflammatory pain [14]: dose-dependently attenuated mechanical hyperalgesia | protection against scMET-induced seizures [15]: giving protection against scMET-induced seizures | effect on seizure threshold to PTZ [4]: little protection

C#Cc1ccc2c(c1)C(c1ccccc1)=NCC(=O)N2C [QH-ii-066]
Ki [16]: < 50 nM | Ki [17]: > 70 nM | Ki [18]: < 50 nM | Ki [19]: < 10 nM

Reference: patent US10259815B2, “Gabaergic ligands and their uses” (UWM Research Foundation, Inc., priority 2015, dated 2019)
